Assay results: ChEMBL document CHEMBL1155461, “Emerging targets in osteoporosis disease modification” (J Med Chem, 2010)

What was measured:
[1] = Induction of osteogenesis in rat UMR106 cells assessed as stimulation of cell proliferation at 10 nM; assay type: functional
Cathepsin K = Cathepsin K (Homo sapiens, UniProt P43235)
[2] = Selectivity for cathepsin K over cathepsin S
[3] = Selectivity for cathepsin K over cathepsin L
[4] = Selectivity for cathepsin K over cathepsin B
Rattus norvegicus [5] = experiment: Induction of bone formation in ovariectomized rat assessed as bone mineral apposition rate per day at 30 mg/kg, po after 28 days (RVb = 1.43 uM); assay type: functional
Rattus norvegicus [6] = experiment: Induction of bone formation in ovariectomized rat assessed as increase in bone mineralizing surface area at 30 mg/kg, po after 28 days (RVb = 30.4%); assay type: functional
MC3T3-E1 [7] = experiment: Induction of osteogenesis in mouse MC3T3-E1 cells assessed as increase in bone mineralization at 0.3 uM; assay type: functional
MC3T3-E1 [8] = experiment: Induction of osteogenesis in mouse MC3T3-E1 cells assessed as increase in osteoblast differentiation-associated collagen synthesis at 0.3 uM; assay type: functional
MC3T3-E1 [9] = experiment: Induction of osteogenesis in mouse MC3T3-E1 cells assessed as increase in osteoblast differentiation-associated ALP level at 0.3 uM; assay type: functional
Osteoclast [10] = experiment: Inhibition of osteoclast differentiation; assay type: functional, cell-based
Cannabinoid receptor 2 = Cannabinoid receptor 2 (Homo sapiens, UniProt P34972); experiment: Antagonist activity at cannabinoid CB2 receptor; assay type: functional
Chain of Cannabinoid receptor 2 (P34972 whole entry): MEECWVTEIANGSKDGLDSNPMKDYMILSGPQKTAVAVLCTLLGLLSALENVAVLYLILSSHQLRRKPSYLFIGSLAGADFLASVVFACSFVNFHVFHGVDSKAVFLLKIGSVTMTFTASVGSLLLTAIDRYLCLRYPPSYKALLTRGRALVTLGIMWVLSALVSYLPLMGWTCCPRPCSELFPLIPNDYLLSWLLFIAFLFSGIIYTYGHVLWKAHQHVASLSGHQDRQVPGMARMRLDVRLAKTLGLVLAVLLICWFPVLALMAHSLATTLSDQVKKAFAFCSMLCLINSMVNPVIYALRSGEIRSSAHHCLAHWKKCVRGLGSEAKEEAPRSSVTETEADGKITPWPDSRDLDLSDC

[11] = molecular target: G-protein coupled receptor 55 (Homo sapiens, UniProt Q9Y2T6); experiment: Binding affinity to GPR55
Chain of G-protein coupled receptor 55 (Q9Y2T6 whole entry): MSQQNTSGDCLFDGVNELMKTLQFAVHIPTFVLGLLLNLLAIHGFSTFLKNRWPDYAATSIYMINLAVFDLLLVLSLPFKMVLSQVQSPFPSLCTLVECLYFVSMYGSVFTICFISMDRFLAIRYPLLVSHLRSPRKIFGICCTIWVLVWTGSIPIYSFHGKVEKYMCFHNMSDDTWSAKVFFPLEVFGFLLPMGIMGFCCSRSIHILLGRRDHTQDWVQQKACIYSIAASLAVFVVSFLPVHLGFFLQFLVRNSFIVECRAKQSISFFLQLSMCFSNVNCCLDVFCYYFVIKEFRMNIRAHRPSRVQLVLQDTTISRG

Mus musculus [12] = experiment: Antiosteoporotic activity in mouse assessed as increase in bone volume at 10 mg/kg administered 3 times a week for 8 weeks; assay type: functional, Bone element
Mus musculus [13] = experiment: Antiosteoporotic activity in mouse assessed as decrease in bone resorption-associated serum CTX-1 level at 10 mg/kg administered 3 times a week for 8 weeks; assay type: functional; settings: 1344 h
Mus musculus [14] = species on record: Mus musculus; experiment: Induction of bone formation in GPR55 knockout male mouse assessed as increase in tibia mass volume; assay type: functional
Mus musculus [15] = species on record: Mus musculus; experiment: Induction of bone formation in GPR55 knockout male mouse assessed as increase in femur mass volume; assay type: functional
Cannabinoid receptor 1 = Cannabinoid receptor 1 (Homo sapiens, UniProt P21554)
Chain of Cannabinoid receptor 1 (P21554 whole entry): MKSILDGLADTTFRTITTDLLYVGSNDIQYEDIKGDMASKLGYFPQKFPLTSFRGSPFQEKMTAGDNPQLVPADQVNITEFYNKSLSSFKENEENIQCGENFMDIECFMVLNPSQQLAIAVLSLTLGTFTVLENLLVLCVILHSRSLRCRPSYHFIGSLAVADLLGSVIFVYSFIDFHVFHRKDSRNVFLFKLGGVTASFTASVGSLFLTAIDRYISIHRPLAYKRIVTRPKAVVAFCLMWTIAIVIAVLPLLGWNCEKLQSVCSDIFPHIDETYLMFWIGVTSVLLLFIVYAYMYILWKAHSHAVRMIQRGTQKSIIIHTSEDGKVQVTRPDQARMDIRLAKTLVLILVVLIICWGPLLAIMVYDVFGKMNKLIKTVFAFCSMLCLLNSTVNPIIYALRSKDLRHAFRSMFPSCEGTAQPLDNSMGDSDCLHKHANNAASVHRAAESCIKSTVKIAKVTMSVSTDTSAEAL

Rattus norvegicus [16] = experiment: Short duration (5-10 min) elevation in PTH as Cmax in rats after 10 umol/kg intravenous dose; assay type: functional, organism-based
Osteoclast [17] = experiment: Inhibition of osteoclastogenesis in RANKL/M-CSF-stimulated osteoclast; assay type: functional, cell-based
[18] = Clearance in po dosed rat; assay type: ADME, organism-based; settings: in vivo
[19] = Half life in po dosed rat; assay type: ADME, organism-based; settings: in vivo
[20] = molecular target: Integrin alpha-V/beta-5 (Homo sapiens) (UniProt P06756+P18084); experiment: Inhibition of integrin alpha-V-beta-5-mediated adhesion of HEK293 cells; assay type: cell-based
Integrin alpha-V/beta-3 = Integrin alpha-V/beta-3 (Homo sapiens, UniProt P05106+P06756); experiment: Inhibition of integrin alpha-V-beta-3-mediated adhesion of HEK293 cells; assay type: cell-based
[21] = molecular target: Integrin alpha-V/beta-6 (Homo sapiens) (UniProt P06756+P18564); experiment: Inhibition of integrin alpha-V-beta-6-mediated adhesion of human HT-29 cells; assay type: cell-based
[22] = molecular target: Integrin alpha-V/beta-1 (Homo sapiens) (UniProt P05556+P06756); experiment: Inhibition of integrin alpha-V-beta-1-mediated adhesion of HEK293 cells; assay type: cell-based
[23] = Selectivity for integrin alphaVbeta3 over integrin alpha2Bbeta3
[24] = Clearance in rat; assay type: ADME, organism-based; settings: in vivo
[25] = molecular target: T1, Extracellular calcium-sensing receptor (Homo sapiens, UniProt P41180)
T1 sequence (P41180 whole entry): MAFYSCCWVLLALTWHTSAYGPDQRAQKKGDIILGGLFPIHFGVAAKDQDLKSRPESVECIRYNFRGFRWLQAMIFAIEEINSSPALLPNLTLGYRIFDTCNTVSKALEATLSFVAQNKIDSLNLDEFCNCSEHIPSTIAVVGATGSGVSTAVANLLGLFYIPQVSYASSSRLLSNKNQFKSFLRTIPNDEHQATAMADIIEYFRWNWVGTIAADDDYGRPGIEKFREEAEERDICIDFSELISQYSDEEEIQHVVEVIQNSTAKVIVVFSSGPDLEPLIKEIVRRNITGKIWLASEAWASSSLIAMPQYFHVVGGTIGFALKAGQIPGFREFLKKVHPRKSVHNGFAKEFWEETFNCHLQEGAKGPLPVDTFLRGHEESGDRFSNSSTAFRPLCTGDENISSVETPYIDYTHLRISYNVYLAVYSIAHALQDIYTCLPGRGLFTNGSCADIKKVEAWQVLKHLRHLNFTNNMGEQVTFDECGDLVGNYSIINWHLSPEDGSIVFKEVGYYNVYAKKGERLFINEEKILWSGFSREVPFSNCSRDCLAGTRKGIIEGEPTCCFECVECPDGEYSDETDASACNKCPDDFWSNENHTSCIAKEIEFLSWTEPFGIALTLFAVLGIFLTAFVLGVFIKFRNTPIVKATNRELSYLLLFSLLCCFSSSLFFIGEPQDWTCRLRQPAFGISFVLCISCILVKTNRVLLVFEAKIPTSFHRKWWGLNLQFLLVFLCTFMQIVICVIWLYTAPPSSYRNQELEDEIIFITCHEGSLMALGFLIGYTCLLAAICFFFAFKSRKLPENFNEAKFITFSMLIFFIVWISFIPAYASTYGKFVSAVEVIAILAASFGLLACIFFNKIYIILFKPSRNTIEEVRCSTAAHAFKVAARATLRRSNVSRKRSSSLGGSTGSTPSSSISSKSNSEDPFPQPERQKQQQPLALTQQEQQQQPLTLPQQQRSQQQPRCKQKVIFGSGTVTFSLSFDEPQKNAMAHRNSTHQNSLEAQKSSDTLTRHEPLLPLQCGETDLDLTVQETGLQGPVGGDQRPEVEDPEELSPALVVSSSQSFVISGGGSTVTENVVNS

Chain of Cathepsin K (P43235 whole entry): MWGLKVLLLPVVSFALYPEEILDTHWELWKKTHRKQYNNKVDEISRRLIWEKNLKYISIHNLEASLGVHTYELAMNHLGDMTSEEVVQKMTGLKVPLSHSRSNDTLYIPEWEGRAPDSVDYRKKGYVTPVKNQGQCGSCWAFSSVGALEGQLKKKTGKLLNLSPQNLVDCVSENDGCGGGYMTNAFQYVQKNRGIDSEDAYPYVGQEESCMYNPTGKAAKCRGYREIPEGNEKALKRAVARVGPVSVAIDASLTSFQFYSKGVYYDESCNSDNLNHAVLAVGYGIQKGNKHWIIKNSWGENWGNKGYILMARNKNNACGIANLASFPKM

O=c1c(O[C@@H]2O[C@H](CO)[C@@H](O)[C@H](O)[C@H]2O)c(-c2ccc(O)cc2)oc2cc(O[C@@H]3O[C@@H](CO)[C@H](O)[C@H]3O)cc(O)c12
Activity [1]: 35.9%

CN1CCN(c2nc(-c3ccc(C(=O)NC4(C(=O)N[C@@H]5C(=O)N[C@@H]5Oc5ccccc5)CCCCC4)cc3)cs2)CC1
Ki (Cathepsin K): 4.8 nM
Selectivity ratio [2]: 3540
Selectivity ratio [3]: 500
Selectivity ratio [4]: 71

CN(c1ccccc1CNc1nc(Nc2ccc3c(c2)CC(=O)N3)ncc1C(F)(F)F)S(C)(=O)=O
mineral apposition rate (Rattus norvegicus [5]): 1.96 µm/day
Activity (Rattus norvegicus [6]): 40.6%

CO[C@@]1(C)CC/C=C(\C)CCC2=C(C)CO[C@H]2/C=C(\C)CC[C@@H]1O
Activity (MC3T3-E1 [7]): 110.6%
Activity (MC3T3-E1 [8]): 108.2%
Activity (MC3T3-E1 [9]): 127.8%

CC(C)CNc1nc(C#N)nc(N2CCOCC2)c1N
Selectivity ratio [2]: 31
Selectivity ratio [3]: 111
Selectivity ratio [4]: > 556

COc1ccc(C(=O)c2c(C)n(CCN3CCOCC3)c3cc(I)ccc23)cc1
IC50 (Osteoclast [10]): 330 nM
IC50 (Cannabinoid receptor 2): 7200 nM

CC(C)(C)Cn1c(CN2C(=O)CC3(CCNCC3)C2=O)cc2cnc(C#N)nc21
IC50 (Cathepsin K): < 1 nM
Selectivity ratio [2]: > 10000
Selectivity ratio [3]: > 1000

C=C(C)[C@@H]1CCC(C)=C[C@H]1c1c(O)cc(CCCCC)cc1O [CANNABIDIOL]
EC50 [11]: 445 nM
Activity (Mus musculus [12]): 10%
inhibition in vivo at 10 mg/kg (Mus musculus [13]): 18%
Activity (Mus musculus [14]): 136%
Activity (Mus musculus [15]): 149%

CCCCCCC(C)(C)c1cc(OC)c([C@H]2C=C(CO)[C@@H]3C[C@H]2C3(C)C)c(OC)c1
Ki (Cannabinoid receptor 1): ≥ 10000 nM

O=c1c2ccccc2nc(-c2ccccc2O)n1CCc1ccccc1
Cmax PTH (Rattus norvegicus [16]): 400 pg/mL

CC1(C)C(=O)CC[C@]2(C)[C@@H]1CC[C@@]13CC4[C@@H](C[C@H]12)[C@]4(C(=O)O)C3
IC50 (Osteoclast [17]): 4000 nM

O=C(O)c1ccc(CCCN2C(=O)CC[C@@H]2CC[C@@H](O)Cc2cccc(C(F)(F)F)c2)s1
CL/F [18]: 70 mL/min/kg
half-life [19]: 12 min

O=C(O)C[C@H](Cc1nc(CCCc2ccc3c(n2)NCCC3)no1)c1ccc2c(c1)OCO2
Activity [20]: 1.7 nM
Activity (Integrin alpha-V/beta-3): 0.65 nM
Activity [21]: 2.7 µM
Activity [22]: 2.6 nM
Selectivity ratio [23]: 67

CC(C)(CC1Cc2ccccc2C1)NC[C@@H](O)COc1cc(CCC(=O)O)ccc1C#N [SB-423562]
clearance [24]: 89 mL/min/kg
IC50 [25]: 73 nM
